Each molecule was assayed against T1, PIKfyve (Homo sapiens, UniProt Q9Y2I7) (assay: Degradation of PIKfyve proteins in VCaP tumor cells (24 h, Western blot)). Settings: 37° C., compared with DMSO control, WB, read-out: DC50 (concentration that achieves 50% degradation activity).
T1 construct: endogenous in cells; host or cells: VCaP
Assay type: cell-based
Experimental: Method: 200 μL of cells at a density of 5×10^6 cells/ml were inoculated into a 6-well plate, and then different concentrations of drugs were added. The cells were treated at 37° C. for 24 h. The […] was collected and washed with PBS twice. Then, 100-200 μL of 1×SDS lysate was added, and the cell lysate was collected into a centrifuge tube. The cells were disrupted ultrasonically for 10-20 sec, and boiled for 10 min. Protein samples were subjected to SDS-PAGE electrophoresis at a voltage of 90 V, transferred to PVDF membranes at 110 V, blocked with 5% BSA for 4 h, incubated with primary antibodies (PIKfyve, GAPDH) at 4° C. overnight, and incubated with secondary antibodies (anti-Rabbit IgG or anti-Mouse IgG) at room temperature. The membranes were washed with TBST buffer, developed with an ECL developing solution, and then imaged to obtain protein band signals, with single-concentration WB results as shown in FIG. 1. Compared with the DMSO control group, the concentration that achieves 50% degradation activity is defined as DC50.

T1 sequence (Q9Y2I7 whole entry): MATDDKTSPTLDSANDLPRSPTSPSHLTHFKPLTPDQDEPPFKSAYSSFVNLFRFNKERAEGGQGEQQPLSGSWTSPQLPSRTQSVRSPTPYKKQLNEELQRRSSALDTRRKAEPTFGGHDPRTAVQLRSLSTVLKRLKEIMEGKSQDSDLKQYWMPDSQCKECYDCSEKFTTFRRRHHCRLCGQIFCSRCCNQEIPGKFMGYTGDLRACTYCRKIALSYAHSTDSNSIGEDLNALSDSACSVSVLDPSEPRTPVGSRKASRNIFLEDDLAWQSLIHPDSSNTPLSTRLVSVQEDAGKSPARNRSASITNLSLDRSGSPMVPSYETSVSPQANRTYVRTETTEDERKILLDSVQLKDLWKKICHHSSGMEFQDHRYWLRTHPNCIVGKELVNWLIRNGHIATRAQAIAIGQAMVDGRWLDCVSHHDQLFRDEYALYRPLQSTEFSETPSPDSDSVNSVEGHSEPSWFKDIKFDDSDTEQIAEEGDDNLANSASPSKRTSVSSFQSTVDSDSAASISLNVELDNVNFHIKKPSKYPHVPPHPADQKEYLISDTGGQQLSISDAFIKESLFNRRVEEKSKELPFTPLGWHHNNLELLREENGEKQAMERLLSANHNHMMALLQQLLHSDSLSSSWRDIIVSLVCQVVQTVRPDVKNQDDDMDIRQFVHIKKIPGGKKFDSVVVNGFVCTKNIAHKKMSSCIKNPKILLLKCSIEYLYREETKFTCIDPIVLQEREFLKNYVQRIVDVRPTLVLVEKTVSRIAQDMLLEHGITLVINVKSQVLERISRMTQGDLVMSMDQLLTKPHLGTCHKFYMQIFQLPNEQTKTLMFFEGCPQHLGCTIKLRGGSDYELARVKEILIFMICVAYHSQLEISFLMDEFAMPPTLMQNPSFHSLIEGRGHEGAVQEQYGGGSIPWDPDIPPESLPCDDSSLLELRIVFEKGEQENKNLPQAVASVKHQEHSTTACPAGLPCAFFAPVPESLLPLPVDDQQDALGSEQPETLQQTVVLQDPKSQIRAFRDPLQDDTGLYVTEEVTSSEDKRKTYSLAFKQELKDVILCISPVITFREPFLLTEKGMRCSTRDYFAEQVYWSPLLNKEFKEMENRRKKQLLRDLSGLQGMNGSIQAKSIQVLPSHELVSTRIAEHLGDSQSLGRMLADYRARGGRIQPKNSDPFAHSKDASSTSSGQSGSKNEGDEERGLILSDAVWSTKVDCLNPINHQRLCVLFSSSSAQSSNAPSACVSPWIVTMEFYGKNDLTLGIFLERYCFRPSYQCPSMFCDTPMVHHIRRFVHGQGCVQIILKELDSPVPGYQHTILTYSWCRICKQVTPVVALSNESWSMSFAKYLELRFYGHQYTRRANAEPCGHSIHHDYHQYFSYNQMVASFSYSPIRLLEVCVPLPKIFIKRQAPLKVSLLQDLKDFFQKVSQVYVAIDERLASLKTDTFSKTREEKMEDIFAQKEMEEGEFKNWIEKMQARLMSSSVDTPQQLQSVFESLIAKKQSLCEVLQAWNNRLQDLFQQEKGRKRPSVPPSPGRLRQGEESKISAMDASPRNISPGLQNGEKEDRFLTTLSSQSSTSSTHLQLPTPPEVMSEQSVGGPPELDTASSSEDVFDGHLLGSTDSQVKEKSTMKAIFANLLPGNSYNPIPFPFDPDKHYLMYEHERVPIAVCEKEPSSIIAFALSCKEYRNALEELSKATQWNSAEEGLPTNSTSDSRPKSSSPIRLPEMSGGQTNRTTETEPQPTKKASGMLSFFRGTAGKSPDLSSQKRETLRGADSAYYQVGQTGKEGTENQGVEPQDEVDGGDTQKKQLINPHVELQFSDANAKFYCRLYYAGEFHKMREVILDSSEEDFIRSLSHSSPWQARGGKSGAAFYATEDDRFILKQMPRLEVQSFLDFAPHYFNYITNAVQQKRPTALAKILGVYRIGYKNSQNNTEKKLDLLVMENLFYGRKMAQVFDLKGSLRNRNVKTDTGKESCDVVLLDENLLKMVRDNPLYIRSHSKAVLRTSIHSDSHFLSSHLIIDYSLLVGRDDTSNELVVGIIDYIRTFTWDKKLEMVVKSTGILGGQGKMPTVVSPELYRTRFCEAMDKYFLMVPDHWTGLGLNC

SMILES | DC50 [nM]
Cc1cccc(/C=N/Nc2cc(N3CCOCC3)nc(OCCc3ccc(NC(=O)CCCCCNc4ccc5c(c4)C(=O)N(C4CCC(=O)NC4=O)C5=O)cc3)n2)c1 (centres unmarked) [Example 17, (E)-6-((2-(2,6-dioxopiperidin-3-yl)-1,3-dioxoisoindolin-5-yl)amino)-N-(4-(2-((4-(2-(3-methylbenzylidene)hydrazino)-6-morpholinopyrimidin-2-yl)oxy)ethyl)phenyl) hexanamide] | 100 to 10000
Cc1cccc(/C=N/Nc2cc(N3CCOCC3)nc(OCCNC(=O)CCCCCCCCC(=O)N[C@H](C(=O)N3C[C@H](O)C[C@H]3C(=O)NCc3ccc(-c4scnc4C)cc3)C(C)(C)C)n2)c1 [Example 64, N^1—((S)-1-((2S,4R)-4-hydroxy-2-((4-(4-methylthiazol-5-yl)benzyl)carbamoyl)pyrrolidine-1-yl)-3,3-dimethyl-1-oxobutan-2-yl)-N^10-(2-((4-(2-((E)-3-methylbenzylidene) hydrazino)-6-morpholinopyrimidin-2-yl)oxy)ethyl)decanediamide] | 100 to 10000
Cc1cccc(/C=N/Nc2cc(N3CCOCC3)nc(OCCNC(=O)CCC(=O)N[C@H](C(=O)N3C[C@H](O)C[C@H]3C(=O)NCc3ccc(-c4scnc4C)cc3)C(C)(C)C)n2)c1 [Example 61, N^1—((S)-1-((2S,4R)-4-hydroxy-2-((4-(4-methylthiazol-5-yl)benzyl)carbamoyl)pyrrolidine-1-yl)-3,3-dimethyl-1-oxobutan-2-yl)-N^4-(2-((4-(2-((E)-3-methylbenzylidene) hydrazino)-6-morpholinopyrimidin-2-yl)oxy)ethyl)succinimide] | 100 to 10000
Cc1cccc(/C=N/Nc2cc(N3CCOCC3)nc(OCCc3ccc(NC(=O)CCCCCCCCCNc4ccc5c(c4)C(=O)N(C4CCC(=O)NC4=O)C5=O)cc3)n2)c1 (centres unmarked) [Example 19, (E)-10-((2-(2,6-dioxopiperidin-3-yl)-1,3-dioxoisoindolin-5-yl)amino)-N-(4-(2-((4-(2-(3-methylbenzylidene)hydrazino)-6-morpholinopyrimidin-2-yl)oxy)ethyl)phenyl) decanamide] | 100 to 10000
Cc1cccc(/C=N/Nc2cc(N3CCOCC3)nc(OCCc3ccc(NC(=O)CCCCCCCCC(=O)Nc4ccc5c(c4)C(=O)N(C4CCC(=O)NC4=O)C5)cc3)n2)c1 (centres unmarked) [Example 31, (E)-N^1-(2-(2,6-dioxopiperidin-3-yl)-3-oxoisoindol-5-yl)-N^10-(4-(2-((4-(2-(3-methylbenzylidene)hydrazino)-6-morpholinopyrimidin-2-yl)oxy)ethyl)phenyl)decanediamide] | 100 to 10000
Cc1cccc(-c2ccn(-c3cc(N4CCOCC4)nc(OC4CCN(c5ccc(NC(=O)NC6CCN(c7cc8c(cc7F)C(=O)N(C7CCC(=O)NC7=O)C8=O)CC6)cc5)CC4)n3)n2)c1 (centres unmarked) [Example 92, 1-(1-(2-(2,6-Dioxopiperidin-3-yl)-6-fluoro-1,3-dioxoisoindolin-5-yl)piperidin-4-yl)-3-(4-(4-((4-morpholino-6-(3-(m-tolyl)-1H-pyrazol-1-yl)pyrimidin-2-yl)oxy)piperidin-1-yl)phenyl)urea] | 100 to 10000
Cc1cccc(/C=N/Nc2cc(N3CCOCC3)nc(OCCc3ccc(NC(=O)CCCCCOc4ccc5c(c4)C(=O)N(C4CCC(=O)NC4=O)C5=O)cc3)n2)c1 (centres unmarked) [Example 8, (E)-6-((2-(2,6-dioxopiperidin-3-yl)-1,3-dioxoisoindolin-5-yl)oxy)-N-(4-(2-((4-(2-(3-methylbenzylidene)hydrazino)-6-morpholinopyrimidin-2-yl)oxy)ethyl)phenyl)hexanamide] | 100 to 10000
Cc1cccc(/C=N/Nc2cc(N3CCOCC3)nc(OCCNC(=O)CCCCCCC(=O)N[C@H](C(=O)N3C[C@H](O)C[C@H]3C(=O)NCc3ccc(-c4scnc4C)cc3)C(C)(C)C)n2)c1 [Example 63, N^1—((S)-1-((2S,4R)-4-hydroxy-2-((4-(4-methylthiazol-5-yl)benzyl)carbamoyl)pyrrolidine-1-yl)-3,3-dimethyl-1-oxobutan-2-yl)-N-(2-((4-(2-((E)-3-methylbenzylidene) hydrazino)-6-morpholinopyrimidin-2-yl)oxy)ethyl)octanediamide] | 100 to 10000
Cc1cccc(/C=N/Nc2cc(N3CCOCC3)nc(OCCc3ccc(NC(=O)CCCCC(=O)Nc4ccc5c(c4)C(=O)N(C4CCC(=O)NC4=O)C5)cc3)n2)c1 (centres unmarked) [Example 29, (E)-N^1-(2-(2,6-dioxopiperidin-3-yl)-3-oxoisoindolin-5-yl)-N^6-(4-(2-((4-(2-(3-methylbenzylidene)hydrazino)-6-morpholinopyrimidin-2-yl)oxy)ethyl)phenyl)adipamide] | 1 to 100
Cc1cccc(/C=N/Nc2cc(N3CCOCC3)nc(OCCc3ccc(NC(=O)CCCCCCCNc4ccc5c(c4)C(=O)N(C4CCC(=O)NC4=O)C5=O)cc3)n2)c1 (centres unmarked) [Example 18, (E)-8-((2-(2,6-dioxopiperidin-3-yl)-1,3-dioxoisoindolin-5-yl)amino)-N-(4-(2-((4-(2-(3-methylbenzylidene)hydrazino)-6-morpholinopyrimidin-2-yl)oxy)ethyl)phenyl) octanamide] | 100 to 10000
Cc1cccc(-c2ccn(-c3cc(N4CCOCC4)nc(OC4CCN(c5ccc(N6CCN(C(=O)CCCC[C@H](NC(=O)[C@@H]7C[C@@H](O)CN7C(=O)[C@@H](NC(=O)C7(F)CC7)C(C)(C)C)c7ccc(-c8scnc8C)cc7)CC6)cc5)CC4)n3)n2)c1 [Example 86, (2S,4R)-1-((S)-2-(1-fluorocyclopropane-1-carboxamido)-3,3-dimethylbutanoyl)-4-hydroxy-N—((S)-1-(4-(4-methylthiazol-5-yl)phenyl)-6-(4-(4-(4-((4-morpholino-6-(3-(m-tolyl)-1H-pyrazol-1-yl)pyrimidin-2-yl)oxy)piperidin-1-yl)phenyl)piperazin-1-yl)-6-oxohexyl) pyrrolidine-2-carboxamide] | 1 to 100

Second part, the molecule after the results:

DC50 [nM] | SMILES
1 to 100 | Cc1cccc(/C=N/Nc2cc(N3CCOCC3)nc(OCCc3ccc(NC(=O)CCCCCCC(=O)N[C@H](C(=O)N4C[C@H](O)C[C@H]4C(=O)NCc4ccc(-c5scnc5C)cc4)C(C)(C)C)cc3)n2)c1 [Example 39, N^1—((S)-1-((2S,4R)-4-hydroxy-2-((4-(4-methylthiazol-5-yl)benzyl)carbamoyl)pyrrolidine-1-yl)-3,3-dimethyl-1-oxobutan-2-yl)-N^8-(4-(2-((4-(2-((E)-3-methylbenzylidene) hydrazino)-6-morpholinopyrimidin-2-yl)oxy)ethyl)phenyl)octanediamide]
1 to 100 | Cc1cccc(/C=N/Nc2cc(N3CCOCC3)nc(OCCc3ccc(NC(=O)CCCCCC(=O)N[C@H](C(=O)N4C[C@H](O)C[C@H]4C(=O)NCc4ccc(-c5scnc5C)cc4)C(C)(C)C)cc3)n2)c1 [Example 42, N^1—((S)-1-((2S,4R)-4-hydroxy-2-((4-(4-methylthiazol-5-yl)benzyl)carbamoyl)pyrrolidine-1-yl)-3,3-dimethyl-1-oxobutan-2-yl)-N^7-(4-(2-((4-(2-((E)-3-methylbenzylidene) hydrazino)-6-morpholinopyrimidin-2-yl)oxy)ethyl)phenyl)heptanediamide]
1 to 100 | Cc1cccc(-c2ccn(-c3cc(N4CCOCC4)nc(OCCc4ccc(-c5ccc(NC(=O)CC[C@H](NC(=O)[C@@H]6C[C@@H](O)CN6C(=O)[C@@H](NC(=O)C6(F)CC6)C(C)(C)C)c6ccc(-c7scnc7C)cc6)cc5)cc4)n3)n2)c1 [Example 88, (2S,4R)-1-((S)-2-(1-fluorocyclopropane-1-carboxamido)-3,3-dimethylbutanoyl)-4-hydroxy-N—((S)-1-(4-(4-methylthiazol-5-yl)phenyl)-4-((4′-(2-((4-morpholino-6-(3-(m-tolyl)-1H-pyrazol-1-yl)pyrimidin-2-yl)oxy)ethyl)-[1,1′-biphenyl]-4-yl)amino)-4-oxobutyl)pyrrolidine-2-carboxamide]
1 to 100 | Cc1cccc(-c2ccn(-c3cc(N4CCOCC4)nc(OCCc4ccc(NC(=O)NC5CCN(C(=O)CC[C@H](NC(=O)[C@@H]6C[C@@H](O)CN6C(=O)[C@@H](NC(=O)C6(F)CC6)C(C)(C)C)c6ccc(-c7scnc7C)cc6)CC5)cc4)n3)n2)c1 [Example 79, (2S,4R)-1-((S)-2-(1-fluorocyclopropane-1-carboxamido)-3,3-dimethylbutanoyl)-4-hydroxy-N—((S)-1-(4-(4-methylthiazol-5-yl)phenyl)-4-(4-(3-(4-(2-((4-morpholino-6-(3-(m-tolyl)-1H-pyrazol-1-yl)pyrimidin-2-yl)oxy)ethyl)phenyl)ureido)piperidin-1-yl)-4-oxobutyl) pyrrolidine-2-carboxamide]
1 to 100 | Cc1cccc(-c2ccn(-c3cc(N4CCOCC4)nc(OC4CCN(c5ccc(NC(=O)NC6CCN(C(=O)C[C@H](NC(=O)[C@@H]7C[C@@H](O)CN7C(=O)[C@@H](NC(=O)C7(F)CC7)C(C)(C)C)c7ccc(-c8scnc8C)cc7)CC6)cc5)CC4)n3)n2)c1 [Example 82, (2S,4R)-1-((S)-2-(1-fluorocyclopropane-1-carboxamido)-3,3-dimethylbutanoyl)-4-hydroxy-N—((S)-1-(4-(4-methylthiazol-5-yl)phenyl)-3-(4-(3-(4-(4-((4-morpholino-6-(3-(m-tolyl)-1H-pyrazol-1-yl)pyrimidin-2-yl)oxy)piperidin-1-yl)phenyl)ureido)piperidin-1-yl)-3-oxopropyl)pyrrolidine-2-carboxamide]
1 to 100 | Cc1cccc(/C=N/Nc2cc(N3CCOCC3)nc(OCCc3ccc(NC(=O)CCCC(=O)N[C@H](C(=O)N4C[C@H](O)C[C@H]4C(=O)N[C@@H](C)c4ccc(-c5scnc5C)cc4)C(C)(C)C)cc3)n2)c1 [Example 45]
